What was measured:
NF-κB signaling pathway = test: Cell-based dual luciferase NF-κB reporter assay (HEK293 cells, TNF stimulated); settings: Homo sapiens, HEK293
Method: Dual-luciferase reporter assay was designed to find inhibitors of HOIP affecting NF-κB signaling pathway. The assay was performed in HEK293 cells which were transfected with plasmids coding for Firefly and NanoLuc luciferases. The NanoLuc luciferase plasmid contains NF-κB response element which determines its expression.
The assay was run following standard dual-luciferase protocols. The assay consists of a few steps: • compounds were dispensed at a concentration range: 100-0.005 μM with a final DMSO concentration of 1% of final volume (25 μL); • cells were stimulated after 30 min with 2.5 ng/mL TNF; and • after 6 h Firefly and NanoLuc luciferase activities are determined according to the procedure described by the manufacturer of Nano-Glo Dual-Luciferase Reporter Assay System.

[1] = biological target: T1, human E3 ubiquitin-protein ligase RNF31 (HOIP) (Homo sapiens, UniProt Q96EP0); test: Cell-free HTRF-based HOIP inhibition assay; assay type: biochemical
T1 sequence (Q96EP0 695-1072 limits assumed): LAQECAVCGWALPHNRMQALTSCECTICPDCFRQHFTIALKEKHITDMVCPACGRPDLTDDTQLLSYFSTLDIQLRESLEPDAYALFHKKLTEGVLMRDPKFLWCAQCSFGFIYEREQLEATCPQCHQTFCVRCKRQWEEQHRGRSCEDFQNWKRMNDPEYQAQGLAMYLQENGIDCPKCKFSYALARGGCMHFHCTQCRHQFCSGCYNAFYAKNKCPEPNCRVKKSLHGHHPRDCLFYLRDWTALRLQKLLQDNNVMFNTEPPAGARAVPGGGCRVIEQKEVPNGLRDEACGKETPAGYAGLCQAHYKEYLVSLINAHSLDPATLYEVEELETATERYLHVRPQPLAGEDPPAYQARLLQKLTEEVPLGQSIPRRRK
Procedure, shortened: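 Recombinant human HOIP fragment (E. coli) preincubated with compounds (100-0.005 μM, 1% DMSO) and E1 for 1 h at 25° C. E2 and substrates then added; reaction 2.5 h at 25° C. HTRF read-out, excitation 337 nm, emissions 665/620 nm.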

[2] = system: bladder carcinoma RT4 cell line; test: TNF-α-induced cytotoxicity assay (CellTiter-Glo viability); assay type: cell-based; settings: Homo sapiens, RT-4, 72 h
Procedure, shortened: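 RT4 bladder carcinoma cells, 1000 per well, stimulated with 1.25 ng/mL TNFα together with compound for 72 h at 37° C., 5% CO2. Viability read by CellTiter-Glo luminescence, proportional to cellular ATP, as a measure of HOIP-dependent cytotoxicity.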

IC50 (NF-κB signaling pathway) [nM]	IC50 [1] [nM]	Structure (SMILES)	IC50 [2] [nM]
≤ 10000	≤ 1000	O=C(NC/C=C/S(=O)(=O)c1ccccc1)c1cc2cccnc2[nH]c1=O [Example 47, N-[(2E)-3-(benzenesulfonyl)prop-2-en-1-yl]-2-oxo-1,2-dihydro-1,8-naphthyridine-3-carboxamide]	≤ 10000
≤ 1000	≤ 1000	CC1(C)CCc2[nH]c(=O)c(C(=O)NC/C=C/S(=O)(=O)c3ccccc3)cc2C1 [Example 48, N-[(2E)-3-(benzenesulfonyl)prop-2-en-1-yl]-6,6-dimethyl-2-oxo-1,2,5,6,7,8-hexahydroquinoline-3-carboxamide]	≤ 1000
≤ 10000	≤ 1000	O=C(NC/C=C/S(=O)(=O)c1ccccc1)c1cc2c([nH]c1=O)CCC(F)(F)C2 [Example 49, N-[(2E)-3-(benzenesulfonyl)prop-2-en-1-yl]-6,6-difluoro-2-oxo-1,2,5,6,7,8-hexahydroquinoline-3-carboxamide]	≤ 10000
≤ 1000	≤ 1000	Cc1ccc(S(=O)(=O)/C=C/CNC(=O)c2cc3c([nH]c2=O)CCCC3)cc1C [Example 51, N-[(2E)-3-(3,4-dimethylbenzenesulfonyl)prop-2-en-1-yl]-2-oxo-1,2,5,6,7,8-hexahydroquinoline-3-carboxamide]	≤ 1000
≤ 10000	≤ 1000	COc1ccc(S(=N)(=O)/C=C/CNC(=O)c2cc3c([nH]c2=O)CCCC3)cc1OC (stereo not drawn) [Example 52, N-[(2E)-3-[(3,4-dimethoxyphenyl)(imino)oxo-λ^6-sulfanyl]prop-2-en-1-yl]-2-oxo-1,2,5,6,7,8-hexahydroquinoline-3-carboxamide]	≤ 1000
≤ 1000	≤ 1000	[2H]C([2H])(/C=C/S(=O)(=O)c1ccccc1)NC(=O)c1cc2c([nH]c1=O)CCCC2 [Example 53, N-[(2E)-3-(benzenesulfonyl)(1,1-^2H2)prop-2-en-1-yl]-2-oxo-1,2,5,6,7,8-hexahydroquinoline-3-carboxamide]	≤ 1000
≤ 1000	≤ 1000	CN(C)c1ccc(S(=O)(=O)/C=C/CNC(=O)c2cc3c([nH]c2=O)CCCC3)cc1 [Example 54, N-[(2E)-3-[4-(dimethylamino)benzenesulfonyl]prop-2-en-1-yl]-2-oxo-1,2,5,6,7,8-hexahydroquinoline-3-carboxamide]	≤ 1000
≤ 1000	≤ 100	O=C(NC/C=C/S(=O)(=O)c1ccc(C2CC2)cc1)c1cc2c([nH]c1=O)CCCC2 [Example 55, N-[(2E)-3-(4-cyclopropylbenzenesulfonyl)prop-2-en-1-yl]-2-oxo-1,2,5,6,7,8-hexahydroquinoline-3-carboxamide]	≤ 1000
≤ 100	≤ 100	N#Cc1ccc(S(=O)(=O)/C=C/CNC(=O)c2cc3c([nH]c2=O)CCCC3)cc1 [Example 56, N-[(2E)-3-(4-cyanobenzenesulfonyl)prop-2-en-1-yl]-2-oxo-1,2,5,6,7,8-hexahydroquinoline-3-carboxamide]	≤ 1000
≤ 1000	≤ 100	Cc1ccc(S(=N)(=O)/C=C/CNC(=O)c2cc3c([nH]c2=O)CCCC3)cc1C (stereo not drawn) [Example 58, N-[(2E)-3-[(3,4-dimethylphenyl)(imino)oxo-λ^6-sulfanyl]prop-2-en-1-yl]-2-oxo-1,2,5,6,7,8-hexahydroquinoline-3-carboxamide]	≤ 1000
≤ 10000	≤ 1000	N=S(=O)(/C=C/CNC(=O)c1cc2c([nH]c1=O)CCC(F)(F)C2)c1ccc(F)cc1 (stereo not drawn) [Example 59, 6,6-difluoro-N-[(2E)-3-[(4-fluorophenyl)(imino)oxo-λ^6-sulfanyl]prop-2-en-1-yl]-2-oxo-1,2,5,6,7,8-hexahydroquinoline-3-carboxamide]	≤ 1000

The next lines start with the compound.

Structure (SMILES)	IC50 (NF-κB signaling pathway) [nM]	IC50 [1] [nM]	IC50 [2] [nM]
O=C(NC/C=C/S(=O)(=O)c1ccc(Cl)cc1Cl)c1cc2c([nH]c1=O)CCCC2 [Example 32, N-[(2E)-3-(2,4-dichlorobenzenesulfonyl)prop-2-en-1-yl]-2-oxo-1,2,5,6,7,8-hexahydroquinoline-3-carboxamide]	≤ 1000	≤ 100	≤ 1000
O=C(NC/C=C/S(=O)(=O)c1ccc(F)cc1Cl)c1cc2c([nH]c1=O)CCCC2 [Example 33, N-[(2E)-3-(2-chloro-4-fluorobenzenesulfonyl)prop-2-en-1-yl]-2-oxo-1,2,5,6,7,8-hexahydroquinoline-3-carboxamide]	≤ 1000	≤ 100	≤ 1000
O=C(NC/C=C/S(=O)(=O)c1ccc(F)cc1F)c1cc2c([nH]c1=O)CCCCC2 [Example 34, N-[(2E)-3-(2,4-difluorobenzenesulfonyl)prop-2-en-1-yl]-2-oxo-1H,2H,5H,6H,7H,8H,9H-cyclohepta[b]pyridine-3-carboxamide]	≤ 1000	≤ 1000	≤ 1000
O=C(NC/C=C/S(=O)(=O)c1ccc(F)cc1)c1cc2c([nH]c1=O)CCCCC2 [Example 35, N-[(2E)-3-(4-fluorobenzenesulfonyl)prop-2-en-1-yl]-2-oxo-1H,2H,5H,6H,7H,8H,9H-cyclohepta[b]pyridine-3-carboxamide]	≤ 1000	≤ 1000	≤ 10000
O=C(NC/C=C/S(=O)(=O)c1ccc(Cl)cc1)c1cc2c([nH]c1=O)CCCCC2 [Example 36, N-[(2E)-3-(4-chlorobenzenesulfonyl)prop-2-en-1-yl]-2-oxo-1H,2H,5H,6H,7H,8H,9H-cyclohepta[b]pyridine-3-carboxamide]	≤ 100000	≤ 1000	≤ 10000
O=C(NC/C=C/S(=O)(=O)c1ccccc1)c1cc2c([nH]c1=O)CCCCC2 [Example 38, N-[(2E)-3-(benzenesulfonyl)prop-2-en-1-yl]-2-oxo-1H,2H,5H,6H,7H,8H,9H-cyclohepta[b]pyridine-3-carboxamide]	≤ 1000	≤ 1000	≤ 1000
O=C(NC/C=C/S(=O)(=O)c1cccc(F)c1)c1cc2c([nH]c1=O)CCCC2 [Example 39, N-[(2E)-3-(3-fluorobenzenesulfonyl)prop-2-en-1-yl]-2-oxo-1,2,5,6,7,8-hexahydroquinoline-3-carboxamide]	≤ 1000	≤ 100	≤ 1000
COc1ccc(S(=O)(=O)/C=C/CNC(=O)c2cc3c([nH]c2=O)CCCC3)cc1 [Example 40, N-[(2E)-3-(4-methoxybenzenesulfonyl)prop-2-en-1-yl]-2-oxo-1,2,5,6,7,8-hexahydroquinoline-3-carboxamide]	≤ 1000	≤ 1000	≤ 1000
O=C(NC/C=C/S(=O)(=O)c1ccccc1Cl)c1cc2c([nH]c1=O)CCCC2 [Example 41, N-[(2E)-3-(2-chlorobenzenesulfonyl)prop-2-en-1-yl]-2-oxo-1,2,5,6,7,8-hexahydroquinoline-3-carboxamide]	≤ 1000	≤ 100	≤ 1000
O=C(NC/C=C/S(=O)(=O)c1ccc(F)cc1F)c1cc2c([nH]c1=O)CCC2 [Example 42, N-[(2E)-3-(2,4-difluorobenzenesulfonyl)prop-2-en-1-yl]-2-oxo-1H,2H,5H,6H,7H-cyclopenta[b]pyridine-3-carboxamide]	≤ 10000	≤ 1000	≤ 1000
O=C(NC/C=C/S(=O)(=O)c1ccccc1)c1cc2c([nH]c1=O)CCC2 [Example 43, N-[(2E)-3-(benzenesulfonyl)prop-2-en-1-yl]-2-oxo-1H,2H,5H,6H,7H-cyclopenta[b]pyridine-3-carboxamide]	≤ 10000	≤ 100	≤ 10000
O=C(NC/C=C/S(=O)(=O)c1cccs1)c1cc2c([nH]c1=O)CCCC2 [Example 44, 2-oxo-N-[(2E)-3-(thiophene-2-sulfonyl)prop-2-en-1-yl]-1,2,5,6,7,8-hexahydroquinoline-3-carboxamide]	≤ 1000	≤ 1000	≤ 1000
COc1ccc(S(=O)(=O)/C=C/CNC(=O)c2cc3c([nH]c2=O)CCCC3)cc1OC [Example 45, N-[(2E)-3-(3,4-dimethoxybenzenesulfonyl)prop-2-en-1-yl]-2-oxo-1,2,5,6,7,8-hexahydroquinoline-3-carboxamide]	≤ 1000	≤ 1000	≤ 10000
CC(C)C1CCc2[nH]c(=O)c(C(=O)NC/C=C/S(=O)(=O)c3ccccc3)cc2C1 (stereo not drawn) [Example 46, N-[(2E)-3-(benzenesulfonyl)prop-2-en-1-yl]-2-oxo-6-(propan-2-yl)-1,2,5,6,7,8-hexahydroquinoline-3-carboxamide]	≤ 1000	≤ 1000	≤ 1000
